Measured values from patent US5912259A, “Method for treating and preventing neurodegenerative disorders by administering a thiazolidinone” (Warner-Lambert Company, priority 1998, dated 1999).
Read-outs that look alike come from different tables or passages of the source.

Experiments:
[1] = system: experimental autoimmune encephalomyelitis (EAE)
Protocol: The thiazolidinone was evaluated in a mouse model of experimental autoimmune encephalomyelitis (EAE). The compound was administered orally to mice sensitized with a fragment of mouse myelin basic protein to induce EAE. Two experiments were conducted using the same protocol and neurological evaluations. Test animals were dosed for 21 days, beginning 4 hours before sensitization on Day 1. The effects of the thiazolidinone were compared to a control group of mice sensitized identically and dosed with vehicle alone. Neurological evaluations continued after cessation of drug treatment. The values reported in Tables 1 and 2 below include responses during drug treatment only.
The thiazolidinone was homogenized manually with an aliquot of warm vehicle (0.5% hydroxypropyl methylcellulose with 0.2% Tween 80in water) in glass mortar tubes and homogenizing pestle. The smooth drug paste was gradually suspended in vehicle. Mice were dosed with drug and/or vehicle, […] in groups of ten (Experiment 1) or twenty (Experiment 2). Mice were dosed from Experiment Day 1 to Day 21. A sham-sensitized group was similarly dosed with vehicle or thiazolidinone 30 mg/kg (Experiment 1).
Female mice, strain PL/J(F1)×SJL/J from Jackson Labs, were sensitized s.c. (0.05 cc×2) at the base of the tail with an emulsion containing equal parts of mouse myelin basic protein (MBP) fragment (amino acids 1-9 of the N-terminus of MBP) in saline and Difco Complete Freund's Adjuvant (CFA) fortified with heat killed desiccated Mycobacteria tuberculosis (MT). Each mouse received 300 μg of the MBP fragment (230 μg free base) and 200 μg MT followed by retrobulbar (i.v.) injection of 200 ng of B. pertussis toxin in 0.2 cc of saline. Forty-eight hours later, mice received a second injection of B. pertussis toxin. Mice in Experiment 1 were 8 to 9 weeks old; mice in Experiment 2 were 11 weeks old.
Animals were weighed and evaluated for symptoms of EAE before sensitization and frequently for 21 days. EAE score: (0.5=slight limp tail, 1=limp tail or slow to right, 1.5=slight limp tail and slow to right, 2=paresis/mild paralysis or incontinence, 2.5=mild paralysis and slow to right or complete paralysis (one hind limb), 3=hind limb paralysis (both), 3.5=hind limb paralysis (both) and limp torso; 4=additional fore limb paralysis, 4.5=head movement only, 5=moribund, death after previous EAE symptoms). Evaluators were blinded as to drug treatments and previous behavioral scores.
Disease symptoms were compared among groups for EAE severity, incidence, time to onset, cumulative score, deaths, and weight loss. Peak EAE score: the mean of highest score of each mouse in a group, independent of duration of symptoms; EAE incidence: the mean number of mice showing symptoms of EAE, defined as having EAE scores on any three consecutive days that total≥3.0. EAE deaths: An animal that died must have presented previous evidence of an EAE score greater than 0.5; EAE onset: the first of a 3-day series scoring a total of≥3.0. A Cumulative EAE score is calculated for each animal. A mean of all animals' cumulative score is then determined for each day. Maximum weight loss: the mean of the lowest weight for each animal in a group. (Note: The Cumulative EAE score and the Maximum weight loss can be influenced by death which eliminates severely diseased animals. The number of days that animals are scored also affects the cumulative score and can only be compared "within-trial"). Mice that die from dosing trauma or with no previous symptoms of EAE are deleted from the study. Experimental groups were assumed to be similar and were compared for statistical significance by a two-tailed t-test (p≤0.05).

[2] = system: canine leptomeningeal smooth muscle cells; test: Amyloid β-peptide-induced cytotoxicity in canine leptomeningeal smooth muscle cells; assay type: cell-based, dog
Source text: Canine smooth muscle cells were isolated from freshly obtained old dog meninges. […] Old dogs have an angiopathy resembling the human condition. Smooth muscle cells are the site of cerebral vessel myopathy occurring in the Dutch form of Alzheimer's disease. The compromise of these cells ultimately leads to a cerebrovascular accident and the death of some humans.
Cells from the meninges were dissociated and kept in culture in 10% fetal calf serum and Dulbecco's minimal essential media with antibiotics for about 1 week on tissue culture plates before use in biochemical studies or transferal to uncoated microscope slides for morphological studies. These smooth muscle cells represent brain blood vessel cells and they can be passaged several times. For inducing cytotoxicity, the cells were treated, in serum-free media, with 10 to 20 μM of amyloid β-peptide that was 42 amino acids long. This peptide corresponds to the human β-peptide sequence. The peptide was dissolved in water immediately before use. This small amount of protein is believed to approximate the concentration of protein observed in postmortem samples in the brains of people who died with Alzheimer's dementia.
Percentages were determined by counting normal and apoptotic nuclei in three fields with five independent measures in a fluorescence microscope.

[3] = General pharmacokinetic and tolerability properties
[4] = sensitized, 30 mg oral, (a) deaths designated due to EAE
[5] = sensitized, 30 mg oral, (b) deaths due to unknown causes removed

Q: With `CC(C)(C)c1cc(/C=C2\SC(N)=NC2=O)cc(C(C)(C)C)c1O` [CI-1004, (Z)-5-[[3,5-bis(1,1-dimethylethyl)-4-hydroxyphenyl]methylene]-2-imino-4-thiazolidinone methanesulfonate] as the compound, how does the “deaths at ≤Day 10” value ([1]; mouse, in vivo, 30 mg/kg) read?
A: Its value is “three deaths”.

Q: What about the “Cumulative Score” value ([1]; sensitized, 3 mg oral) of the same compound?
A: Its value is 20.3 ± 1.7.

Q: What about the Deaths ([1]; sensitized, 3 mg oral) of the same compound?
A: The Deaths was 2/10.

Q: And the “EAE Incidence” value ([1]; sensitized, 3 mg oral)?
A: The value was 10/10.

Q: And the “EAE Onset” value ([1]; sensitized, 3 mg oral)?
A: Its value is 12.2 ± 0.3 days.

Q: And the “EAE Peak Score” value ([1]; sensitized, 3 mg oral)?
A: Its value is 3.7 ± 0.3.

Q: What about the “Cumulative Score” value ([1]; sensitized, 10 mg oral) of the same compound?
A: The value was 10.9 ± 1.7.

Q: What about the Deaths ([1]; sensitized, 10 mg oral) of the same compound?
A: The Deaths was 2/10.

Q: And the “EAE Incidence” value ([1]; sensitized, 10 mg oral)?
A: Its value is 7/10.

Q: And the “EAE Onset” value ([1]; sensitized, 10 mg oral)?
A: The value was 12.1 ± 1.5 days.

Q: What about the “EAE Peak Score” value ([1]; sensitized, 10 mg oral) of the same compound?
A: The value was 3.0 ± 0.6.

Q: What about the “daily EAE scores, incidence, cumulative EAE scores, weight loss” value ([1]; sensitized, 10 mg/kg) of the same compound?
A: The value was “showed a suggestion of inhibition of daily EAE scores, reduced incidence, cumulative EAE scores, and weight loss”.

Q: What about the “Cumulative Score” value [1, 4] of the same compound?
A: The value was 10.9 ± 3.4.

Q: And the Deaths [1, 4]?
A: The Deaths was 3/9.

Q: What about the “EAE Incidence” value [1, 4] of the same compound?
A: The value was 7/9.

Q: And the “EAE Onset” value [1, 4]?
A: Its value is 12.7 ± 2.2 days.

Q: What about the “EAE Peak Score” value [1, 4] of the same compound?
A: The value was 3.1 ± 0.6.

Q: What about the “Cumulative Score” value [1, 5] of the same compound?
A: Its value is 9.4 ± 3.4.

Q: What about the Deaths [1, 5] of the same compound?
A: Its Deaths is 0/6.

Q: And the “EAE Incidence” value [1, 5]?
A: Its value is 4/6.

Q: And the “EAE Onset” value [1, 5]?
A: Its value is 16.0 ± 2.1 days.

Q: And the “EAE Peak Score” value ([1]; sensitized, 30 mg oral, (b) deaths due to unknown causes removed, p < 0.05)?
A: Its value is 2.1 ± 0.6.

Q: What about the “overall EAE symptoms” value ([1]; sensitized, 30 mg/kg, Method A) of the same compound?
A: The value was “no significant reduction in overall EAE symptoms”.

Q: What about the “peak EAE score and weight loss” value ([1]; sensitized, 30 mg/kg, Method B) of the same compound?
A: Its value is “significant reduction in the peak EAE score and weight loss”.

Q: What about the “daily EAE scores Days 10 to 21” value ([1]; sensitized, 30 mg/kg, Methods A and B) of the same compound?
A: The value was “tendency to reduced daily EAE scores from Days 10 to 21, although a statistically significant reduction was seen only on Day 15 (p≤0.05)”.

Q: And the “EAE scores versus vehicle controls to Day 21” value ([1]; sensitized, 3 or 10 mg/kg)?
A: The value was “did not show significantly reduced EAE scores”.

Q: What about the “Cumulative Score” value ([1]; sham-sensitized, 30 mg oral) of the same compound?
A: The value was 1.4 ± 0.6.

Q: And the Deaths ([1]; sham-sensitized, 30 mg oral)?
A: The Deaths was 0/9.

Q: And the “EAE Incidence” value ([1]; sham-sensitized, 30 mg oral)?
A: Its value is 0/9.

Q: What about the “EAE Peak Score” value ([1]; sham-sensitized, 30 mg oral) of the same compound?
A: The value was 0.8 ± 0.

Q: What about the “EAE symptoms and deaths in sham-sensitized mice” value ([1]; sham-sensitized, 30 mg/kg) of the same compound?
A: The value was “showed little symptoms of disease and no deaths”.

Q: And the “amyloid accumulation over the cells” value [2]?
A: Its value is “amyloid accumulation over the cells was reduced”.

Q: And the “cell death induced by amyloid” value ([2]; 20-30 μM in 5% DMSO/water v/v)?
A: The value was “significantly decrease the cell death induced by the amyloid”.

Q: What about the “GI tract and kidney tolerability” value [3] of the same compound?
A: Its value is “relatively benign to the GI tract and kidneys”.

Q: What about the blood-brain barrier passage [3] of the same compound?
A: The blood-brain barrier passage was “readily crosses the blood-brain barrier”.

Q: What about the half-life [3] of the same compound?
A: Its half-life is “relatively long half-life”.
